One substance from PMC8140105 (Scientific Reports, 2021) can be followed below.

This data set in a line: Brain-to-blood transport (efflux). The following applies: kout not significantly different from zero. The class given is in vivo, ICR-CD-1 mice. How it is done: Briefly, 0.1 µmol of the lyophilized peptide was dissolved in 100 µL of phosphate buffer (pH 7.4, 25 mM). A Iodo-Gen coated tube (Thermo Scientific, Merelbeke, Belgium) was first of all rinsed with 1 mL of phosphate buffer. Subsequently, 50 µL of sodium iodide solution (1.1 µmol/mL) and 1 mCi of Na^125I solution (Perking Elmer, Zaventem, Belgium) were transferred into this Iodo-Gen coated tube. The oxidation reaction was allowed to proceed for six minutes at room temperature, after which the iodonium solution was transferred to 50 µL of peptide solution (1 mM). The iodination reaction of the peptide was allowed to proceed for another six minutes at room temperature. […]
We quantified the amount of peptide exported out of the brain as previously described. […] Then, the whole brain was collected, weighed and measured in a gamma counter for 5 min. Fifty µL of serum, which was obtained by centrifuging the collected blood at 10,000g during 15 min at 21 °C, and the background was also measured in a gamma counter. The efflux half-life was calculated from the linear regression of the natural logarithm of the residual radioactivity in brain versus time as follows:3 t1/2=ln(2)/kout where kout is defined as the efflux rate constant calculated as the negative value of the slope of the linear regression, applying first order kinetics.

Regarding “SDLPFEH [PapRIV, heptapeptide (SDLPFEH) quorum sensing peptide originating from the Bacillus cereus group; synthetic, purchased from GL Biochem]”, the “efflux from brain back to the circulation” value is on record as “no efflux”.
